Laboratory results from US20090176786A1, “Benzoylurea Compounds and Use Thereof” (priority 2005, published 2009).
Like-named read-outs stand apart in the source and are kept apart here.

Legend:
Format in all cases: in vivo
[1] = system: Frankliniella occidentalis; test: Test Example 4: spray on cucumber, control value against Frankliniella occidentalis larvae; conditions: 168 h, spray 20 ml/cup on cucumber, 30 larvae, seven days after spraying; for pest or weed control at 12.5 ppm: test concentration 12.5 ppm; for pest or weed control at 50 ppm: test concentration 50 ppm
Method: The obtained preparation was diluted with water so that the active ingredient concentration became to a predetermined concentration to prepare a spray solution for test. […] were planted in polyethylene cups, and were grown until the first true leaf was developed. The spray solution for test prepared above was sprayed at the rate of 20 ml/cup on the cucumber. After the pesticidal solution sprayed onto the cucumber was dried, the first true leaf was cut off and then placed on a filter paper (diameter: 70 mm) containing water in a polyethylene cup (diameter: 110 mm). On the cucumber leaf, 30 larvae of Frankliniella occidentalis were released, and the polyethylene cup was capped. Seven days after spraying, the number of pests surviving on the cucumber leaf was counted, and a control value was calculated by the following equation: Control value(%)={1−(Cb×Tai)/(Cai×Tb)}×100 wherein, each symbol has following meaning: Cb: the number of pests before treatment in a non-treated area Cai: the number of pests at the time of observation in a non-treated area Tb: the number of pests before treatment in a treated-area Tai: the number of pests at the time of observation in a treated-area. […] The test concentrations of the other present compounds were 50 ppm.

Plutella xylostella = test: Test Example 2: cabbage root immersion (systemic), dead pest rate of Plutella xylostella larvae; conditions: for pest or weed control at 5 ppm / pest or weed control at 25 ppm / pest or weed control at 1 ppm: Plutella xylostella, 120 h; for pest or weed control at 5 ppm: read-out: dead pest rate; for pest or weed control at 1 ppm: test concentration of 1 ppm
Method: In 0.25 mL of a mixture solution of Sorgen TW-20 (manufactured by Daiichi Industries Pharmaceuticals, Co., Ltd.) and acetone (mixture volume ratio; Sorgen TW-20:acetone=1:19), 2.5 mg of the present compound (1), (2), (3), (4), (7), (10), (11), (12), (16), (18), (19), (20), (21), (22), (25), (30), (36), (37), (41), (42), (52), (54), (56), (57), (60), (62), (105) or (109) was dissolved. The solution was diluted with ion-exchanged water so that the active ingredient concentration became to a predetermined concentration to prepare a pesticidal solution for test of the test compound. The root part of cabbages in the fourth leaf period were washed with tap water to remove soils, and then immersed in the pesticidal solution for test. After 5 days from immersion of the root part, the root part was removed, and the leaves and stems were put in a cup (volume; 180 mL). In the cup 10 second-instar larvae of Plutella xylostella were released, and the cup was stored at 24° C. After 5 days, the number of dead pests was counted, and the dead pest rate was calculated by the following equation:
(§1) Dead pest rate(%)=(the number of dead pests/the number of tested pests)×100
The test concentrations of the other present compounds were 25 ppm.

Spondoptela litura = test: Test Example 3: treated artificial diet (Insecta LF), dead pest rate of Spondoptela litura larvae; conditions: 144 h, 2 mL on Insecta LF diet, 5 fourth-instar larvae, after 6 days
Excerpt: Ten parts of the present compound (1) to (5), (7) to (13), (18) to (33), (35) to (49), (52) to (56), (58) to (61), (71), (73) to (77), (79), (80), (82), (83), (93), (94), (95), (96), (97), (100) to (109), (111), (112), (115), (117), (119), (121), or (123) to (133), 35 parts of white carbon containing 50 parts of polyoxyethylene alkyl ether sulfate ammonium salt, and 55 parts of water were mixed, and finely ground by a wet grinding method to obtain a preparation. The obtained preparation was diluted with water so that the active ingredient concentration became to 500 ppm to prepare a pesticidal solution for test. On the bottom of a polyethylene cup having a diameter of 5.5 cm, a filter paper having a diameter of 5.5 cm was placed, on which Insecta LF (Nippon Agriculture Industries, Co., Ltd.) sliced in a thickness of 6 mm and further cut half was laid, and to which 2 mL of the above-described pesticidal solution for test was added. After air-dried, 5 fourth-instar larvae of Spondoptela litura were released in the cup, and the cup was capped. After 6 days, the number of dead pests was counted, and the dead pest rate was calculated by the following equation:
as §1

[2] = test concentration of 5 ppm, root immersion 5 days, 10 second-instar larvae, after 5 days at 24° C.
[3] = test concentration 25 ppm, root immersion 5 days, 10 second-instar larvae, after 5 days at 24° C.
[4] = root immersion 5 days, 10 second-instar larvae, after 5 days at 24° C.

CN(C(=O)NC(=O)c1c(F)cccc1F)c1ccc(SC(F)(F)F)cc1 [(7)]
pest or weed control at 12.5 ppm [1]: 100% | pest or weed control at 5 ppm (Plutella xylostella; [2]): 100%

COCN(C(=O)c1c(F)cccc1F)C(=O)N(C)c1ccc(SC(F)(F)F)cc1F [(11)]
pest or weed control at 25 ppm (Plutella xylostella; [3]): 100%

CCSc1ccc(N(C)C(=O)N(C)C(=O)c2c(F)cccc2F)c(F)c1 [(16)]
pest or weed control at 25 ppm (Plutella xylostella; [3]): 100%

CN(C(=O)NC(=O)c1c(F)cccc1F)c1ccc([S+]([O-])C(F)(F)F)cc1F (stereo not shown) [(18)]
pest or weed control at 1 ppm (Plutella xylostella; [4]): 100%

CN(C(=O)c1c(F)cccc1F)C(=O)N(C)c1ccc([S+]([O-])C(F)(F)F)cc1F (stereo not shown) [(19)]
pest or weed control at 1 ppm (Plutella xylostella; [4]): 100%

CN(C(=O)c1c(F)cccc1F)C(=O)N(C)c1ccc(S(=O)(=O)C(F)(F)F)cc1F [(21)]
pest or weed control at 1 ppm (Plutella xylostella; [4]): 100%

CN(C(=O)c1c(F)cccc1F)C(=O)N(C)c1ccc(SC(F)(F)C(F)(F)C(F)(F)F)cc1F [(22)]
pest or weed control at 3.2 ppm ([1]; test concentration 3.2 ppm): 100% | pest or weed control at 5 ppm (Plutella xylostella): 100%

CN(C(=O)NC(=O)c1c(F)cccc1Cl)c1ccc(SC(F)(F)C(F)F)cc1F [(23)]
pest or weed control at 12.5 ppm [1]: 100%

CN(C(=O)NC(=O)c1c(F)cccc1F)c1ccc([S+]([O-])C(F)(F)C(F)F)cc1F (stereo not shown) [(24)]
pest or weed control at 12.5 ppm [1]: 100%

CN(C(=O)NC(=O)c1c(F)cccc1F)c1ccc(S(=O)(=O)C(F)(F)C(F)F)cc1F [(25)]
pest or weed control at 12.5 ppm [1]: 100% | pest or weed control at 5 ppm (Plutella xylostella; [2]): 100%

CN(C(=O)NC(=O)c1c(F)cccc1F)c1ccc(SC(F)(F)C(F)(F)C(F)(F)F)cc1F [(28)]
pest or weed control at 50 ppm [1]: 100%

CN(C(=O)NC(=O)c1c(F)cccc1Cl)c1ccc(SC(F)(F)C(F)(F)C(F)(F)F)cc1F [(29)]
pest or weed control at 50 ppm [1]: 100%

CN(C(=O)NC(=O)c1c(F)cccc1F)c1ccc(SC(F)(F)C(F)(F)F)cc1F [(30)]
pest or weed control at 50 ppm [1]: 100% | pest or weed control at 5 ppm (Plutella xylostella; [2]): 100%

CN(C(=O)NC(=O)c1c(F)cccc1F)c1ccc(SC(F)(F)C(F)C(F)(F)F)cc1F (stereo not shown) [(31)]
pest or weed control at 50 ppm [1]: 100%

CN(C(=O)NC(=O)c1c(F)cccc1F)c1ccc(SC(F)F)cc1Cl [(34)]
pest or weed control at 50 ppm [1]: 100%

Cc1cc(SC(F)(F)F)ccc1N(C)C(=O)NC(=O)c1c(F)cccc1F [(36)]
pest or weed control at 12.5 ppm [1]: 100% | pest or weed control at 5 ppm (Plutella xylostella; [2]): 100%

CN(C(=O)NC(=O)c1c(F)cccc1F)c1ccc(C(=O)OC(C)(C)C)cc1F [(37)]
dead pest rate (Plutella xylostella; [3]): 100%

CN(C(=O)c1c(F)cccc1F)C(=O)N(C)c1ccc(S(=O)(=O)C(F)(F)C(F)F)cc1F [(40)]
pest or weed control at 12.5 ppm [1]: 100%

CCN(C(=O)N(C)C(=O)c1c(F)cccc1F)c1ccc(SC(F)(F)F)cc1F [(41)]
pest or weed control at 50 ppm [1]: 100% | pest or weed control at 25 ppm (Plutella xylostella; [3]): 100%

Cc1cc(SC(F)(F)F)ccc1N(C)C(=O)N(C)C(=O)c1c(F)cccc1F [(42)]
pest or weed control at 25 ppm (Plutella xylostella; [3]): 100%

CN(C(=O)c1c(F)cccc1Cl)C(=O)N(C)c1ccc(SC(F)(F)C(F)(F)C(F)(F)F)cc1F [(45)]
pest or weed control at 50 ppm [1]: 100%

CN(C(=O)c1c(F)cccc1F)C(=O)N(C)c1ccc(SC(F)(F)C(F)C(F)(F)F)cc1F (stereo not shown) [(47)]
pest or weed control at 50 ppm [1]: 100%

Cc1c(SC(F)(F)C(F)(F)F)ccc(N(C)C(=O)N(C)C(=O)c2c(F)cccc2F)c1C [(49)]
pest or weed control at 50 ppm [1]: 100%

CC(=O)N(C(=O)c1c(F)cccc1F)C(=O)N(C)c1ccc(SC(F)(F)F)cc1F [(52)]
pest or weed control at 5 ppm (Plutella xylostella; [2]): 100%

CN(C(=O)N(C(=O)c1c(F)cccc1F)S(C)(=O)=O)c1ccc(SC(F)(F)F)cc1F [(54)]
pest or weed control at 25 ppm (Plutella xylostella; [3]): 100%

CCN(C(=O)c1c(F)cccc1F)C(=O)N(C)c1ccc(SC(F)(F)F)cc1F [(56)]
pest or weed control at 50 ppm [1]: 100% | pest or weed control at 25 ppm (Plutella xylostella; [3]): 100%

CN(C(=O)NC(=O)c1c(F)cccc1F)c1ccc(SC(F)F)cc1F [(57)]
pest or weed control at 5 ppm (Plutella xylostella; [2]): 100%

C#CCN(C(=O)c1c(F)cccc1F)C(=O)N(C)c1ccc(SC(F)(F)F)cc1F [(60)]
pest or weed control at 25 ppm (Plutella xylostella; [3]): 100%

CN(C(=O)N(C(=O)c1c(F)cccc1F)C1CC1)c1ccc(SC(F)(F)F)cc1F [(69)]
pest or weed control at 50 ppm [1]: 100%

CN(C(=O)N(CC1CC1)C(=O)c1c(F)cccc1F)c1ccc(SC(F)(F)F)cc1F [(71)]
pest or weed control at 50 ppm [1]: 100% | pest or weed control at 500 ppm (Spondoptela litura): 100%

CSCCN(C(=O)c1c(F)cccc1F)C(=O)N(C)c1ccc(SC(F)(F)F)cc1F [(73)]
pest or weed control at 50 ppm [1]: 100%

CN(C(=O)N(Cc1ccccn1)C(=O)c1c(F)cccc1F)c1ccc(SC(F)(F)F)cc1F [(76)]
pest or weed control at 50 ppm [1]: 100%

CN(C(=O)N(C(=O)c1c(F)cccc1F)N1CCOCC1)c1ccc(SC(F)(F)F)cc1F [(79)]
pest or weed control at 500 ppm (Spondoptela litura): 100%

CN(C(=O)N(CCN1CCOCC1)C(=O)c1c(F)cccc1F)c1ccc(SC(F)(F)F)cc1F [(80)]
pest or weed control at 500 ppm (Spondoptela litura): 100%

CN(C(=O)NC(=O)c1c(Cl)cccc1Cl)c1ccc(SC(F)(F)F)cc1F [(95)]
pest or weed control at 500 ppm (Spondoptela litura): 100%

CN(C(=O)c1c(Cl)cccc1Cl)C(=O)N(C)c1ccc(SC(F)(F)F)cc1F [(96)]
pest or weed control at 500 ppm (Spondoptela litura): 100%

CN(C(=O)c1c(F)cccc1F)C(=O)N(C)c1ccc(SC(F)(F)F)cc1Cl [(104)]
pest or weed control at 50 ppm [1]: 100%

Cc1cc(SC(F)(F)C(F)(F)F)ccc1N(C)C(=O)NC(=O)c1c(F)cccc1F [(105)]
pest or weed control at 50 ppm [1]: 100% | pest or weed control at 25 ppm (Plutella xylostella; [3]): 100%

Cc1cc(SC(F)(F)C(F)(F)F)ccc1N(C)C(=O)N(C)C(=O)c1c(F)cccc1F [(106)]
pest or weed control at 50 ppm [1]: 100%

CN(C(=O)NC(=O)c1c(F)cccc1F)c1ccc(SC(F)(F)C(F)(F)F)cc1Cl [(107)]
pest or weed control at 50 ppm [1]: 100%

CN(C(=O)c1c(F)cccc1F)C(=O)N(C)c1ccc(SC(F)(F)C(F)(F)F)cc1Cl [(108)]
pest or weed control at 50 ppm [1]: 100%

CN(C(=O)NC(=O)c1c(F)cccc1F)c1ccc(SC(F)(F)C(F)OC(F)(F)F)cc1F (stereo not shown) [(109)]
pest or weed control at 50 ppm [1]: 100% | pest or weed control at 25 ppm (Plutella xylostella; [3]): 100%

CN(C(=O)c1c(F)cccc1F)C(=O)N(C)c1ccc(SC(F)(F)C(F)OC(F)(F)F)cc1F (stereo not shown) [(110)]
pest or weed control at 50 ppm [1]: 100%

CN(C(=O)c1c(F)cccc1F)C(=O)N(C)c1ccc(SC(F)(F)F)cc1 [(117)]
pest or weed control at 50 ppm [1]: 100% | pest or weed control at 500 ppm (Spondoptela litura): 100%

COc1cccc(CN(C(=O)c2c(F)cccc2F)C(=O)N(C)c2ccc(SC(F)(F)F)cc2F)c1 [(119)]
pest or weed control at 500 ppm (Spondoptela litura): 100%

CSc1ccc(N(C)C(=O)NC(=O)c2c(F)cccc2F)c(C(F)(F)F)c1 [(121)]
pest or weed control at 500 ppm (Spondoptela litura): 100%

Cc1cc(SC(F)(F)C(F)F)ccc1N(C)C(=O)N(C)C(=O)c1c(F)cccc1F [(131)]
pest or weed control at 50 ppm [1]: 100%
